According to US10159676B2, “Induction of tumor hypoxia for cancer therapy” (Virginia Commonwealth University, priority 2008, dated 2018):
“Also recorded” adds a separate entry of the source.

Experiments:
UCI101 tumor xenografts [1] = test: Tumor and normal organ perfusion by DCE-MRI (gadolinium accumulation); format: in vivo, nude mice; conditions: stilbene 5c 50 mg/kg intraperitoneal, 4 hours after injection, same mice before vs after
Protocol: FIGS. 1A and B. Study of tumor perfusion using accumulation of gadolinium at 30 min after gadolinium injection. (A) T1-weighted images before and after stilbene 5c treatment in the same mouse. Nude mice with established subcutaneously UCI101 tumor xenografts were analyzed with DCE-MRI for tumor perfusion. DCE-MRI images were collected for 30 min after injection of gadolinium (OmniScan) into tail veins. The same mice were studied before and after stilbene 5c treatment to avoid individual variation. The left panels show the T1-weighted images before injection of gadolinium. The right panels show images at 30 min after injection of gadolinium. […] (B) Average of calculated gadolinium concentrations in tumor and muscle before and after stilbene 5c treatment. […]
Nude mice with tumor xenografts were anesthetized with 1% isoflurane and mixed oxygen. […] After the initial rate is established, subsequent MRI studies focused on the sustained increase in gadolinium signals, which also provide qualitative and quantitative information for tissue perfusion. […]
Stilbene 5c was investigated to examine whether it can suppress tumor blood flow and eventually lead to tumor hypoxia. […] After injected with 20 μl of gadolinium (OmniScan) via the tail vein, mice were analyzed with a rapid sequence MRI every minute for total of 30 min. […]

UCI tumor xenograft = test: Microvascular density by anti-CD34 immunohistochemistry and H & E staining of tumor and normal organs; format: in vivo, nude mice
Protocol: FIGS. 2A-B. Stilbene 5c treatment decreases microvascular density in tumor but not in normal organs. Nude mice with UCI tumor xenograft were treated with 10% DMSO or stilbene 5c at 50 mg/kg intraperitoneally. Mice were sacrificed at 4 hours after injection, and various organs and tumor were harvested for fixation and standard hematoxylin and eosin (H & E) staining. Immunohistochemical staining of each section was performed with anti-CD34 antibody to quantify the microvascular density. In the original immunohistochemical stained sections, brown staining indicated a positive signal for CD34 staining. (A) Shown are the black and white pictures in 200× fold magnification. The numbers of positive signals in each CD34 stained picture are counted and are shown in the right lower corner of each panel. (B) The averages and standard deviations of 4 different fields that show the most abundant microvascular density are plotted in a histogram. The sections from kidney cannot be scored due to the fact that all vessels around renal tubules are fused into a large network in the picture.
After mice were sacrificed, major organs and tumors were dissected and fixed in 10% formalin. Tissues were embedded in paraffin and sections were stained with H & E, and with antibody against CD34 for quantification of microvascular density. The scoring of microvascular density was based on the methods described by Weidner et al. by counting the CD34-positive signals in a photo frame of 200× magnification using Nikon ECLIPSE E800M microscope equipped with a Diagnostic Instruments Spot RT CCD camera.
We took tissues that were studied with DCE-MRI to investigate the vascular density of tumor and correlate with the results from DCE-MRI-derived vascular perfusion studies. We particularly examined sections from heart and brain, where the toxicity of colchicine site inhibitors was observed. Tissue sections were stained with standard H & E and anti-CD34 (an endothelial marker) antibody by immunohistochemistry staining. […] There was also no histological difference in tumor either. We then used anti-CD34 staining to score microvascular density in tumor and various normal organs (54, 55). The results are indicated at the right lower corner of each panel except kidney, which cannot be scored due to fusion of the capillary network rather than discrete dots or tubes in appearance.

UCI101 tumor xenografts [2] = test: Tumor necrosis in H&E sections three days after treatment; conditions: tirapazamine 60 mg/kg ip, 60 min later stilbene 5c 50 mg/kg ip; sacrificed three days later
Protocol: Mice were sacrificed three days later and tumors were harvested for H&E section. […] The portion of tumor that stained darker is viable, whereas the portion in lighter color is the necrotic area.
After 60 min, stilbene 5c was administered intraperitoneally at 50 mg/kg, which has been established to be capable of inducing profound tumor hypoxia within minutes (FIG. 3). […] Mice were then sacrificed three days later. Tumors were harvested and the center portion of tumor was sliced and analyzed with histological section and H&E staining.

SMILES: COc1cc(/C=C\c2ccc(OC)c(N)c2)cc(OC)c1 [stilbene 5c, cis-3, 4′, 5-trimethoxy-3′-aminostilbene]
- concentration of gadolinium in tumor after stilbene 5c treatment (decreased to, average) (UCI101 tumor xenografts [1]; 30 min after gadolinium, 6 mice): 62.8%
- concentration of gadolinium in muscle after stilbene 5c treatment (UCI101 tumor xenografts [1]): no significant change; also recorded: did not change
- decrease of tumor vascular density (CD34) (UCI tumor xenograft; 50 mg/kg intraperitoneally, 4 hours after injection, vs 10% DMSO): ~4 fold
- H & E staining changes in major organs (UCI tumor xenograft; after stilbene 5c treatment): did not show any significant changes
- microvascular density of tumor decreased to (CD34) (UCI tumor xenograft; after stilbene 5c treatment): nearly one fourth
- microvascular density of normal organs (heart, liver, kidney, brain) (UCI tumor xenograft; after stilbene 5c treatment 50 mg/kg intraperitoneally): does not change
- area of tumor necrosis (H&E, qualitative) (UCI101 tumor xenografts [2]): very small areas of tumor necrosis
